Columns and labels:
Format in all cases: in vivo
Settings in all cases: Postemergence
[1] = tested on: canarygrass (Phalaris minor); experiment: Test B postemergence plant response
Procedure, shortened: (§1)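 Plants grown in peat/vermiculite medium were sprayed postemergence at 2–18 cm height (1- to 4-leaf stage). After 13–15 days in the greenhouse, response was rated visually against untreated controls on a 0–100 scale (0 no effect, 100 complete control).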

[2] = tested on: chickweed (Stellaria media); experiment: Test B postemergence plant response
Procedure, shortened: as §1

[3] = tested on: windgrass (Apera spica-venti); experiment: Test B postemergence plant response
Procedure, shortened: as §1

kochia (Kochia scoparia) = experiment: Test B pre-/postemergence plant response
Procedure, shortened: (§2)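 Seeds sown in loam–sand blend were treated preemergence, and plants at 2–18 cm (1- to 4-leaf stage) in peat-based medium were treated postemergence; compounds were formulated in non-phytotoxic solvent with surfactant. After 13–15 days in greenhouse, response was visually rated against controls, 0 (no effect) to 100 (complete control).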

[4] = tested on: pigweed (Amaranthus retroflexus); experiment: Test B pre-/postemergence plant response
Procedure, shortened: as §2

[5] = tested on: wheat (Triticum aestivum); experiment: Test B pre-/postemergence plant response
Procedure, shortened: as §2

wild oat (Avena fatua) = experiment: Test B pre-/postemergence plant response
Procedure, shortened: as §2

[6] = tested on: ragweed (common ragweed, Ambrosia elatior); experiment: Test B pre-/postemergence plant response
Procedure, shortened: as §2

soybean (Glycine max) = experiment: Test B pre-/postemergence plant response
Procedure, shortened: as §2

[7] = tested on: velvetleaf (Abutilon theophrasti); experiment: Test B pre-/postemergence plant response
Procedure, shortened: as §2

[8] = tested on: cocklebur (Xanthium strumarium); experiment: Test B pre-/postemergence plant response
Procedure, shortened: as §2

[9] = tested on: johnsongrass (Sorghum halepense); experiment: Test B pre-/postemergence plant response
Procedure, shortened: as §2

[10] = tested on: goosegrass (Eleusine indica); experiment: Test B pre-/postemergence plant response
Procedure, shortened: as §2

[11] = 31 g ai/ha, 0 to 100 scale (0 no effect, 100 complete control)
[12] = 125 g ai/ha, scale 0 to 100 (0 no effect, 100 complete control)
[13] = 250 g ai/ha, scale 0 to 100 (0 no effect, 100 complete control), 13 to 15 days

Compound: Cc1ccc(F)cc1-n1c(-c2cccc(Cl)c2)ncc(C(=O)C2=C(O)CCCC2=O)c1=O [Compound 157]
- Plant response rating, Canarygrass [1, 11]: 40
- Plant response rating, Canarygrass [1, 12]: 80
- Plant response rating, Canarygrass [1, 13]: 90
- Plant response rating, Chickweed [2, 11]: 100
- Plant response rating, Chickweed [2, 12]: 100
- Plant response rating, Chickweed [2, 13]: 100
- Plant response rating, Windgrass [3, 11]: 60
- Plant response rating, Windgrass [3, 12]: 70
- Plant response rating, Windgrass [3, 13]: 80
- Plant response rating, Kochia (kochia (Kochia scoparia); [11]): 0
- Plant response rating, Kochia (kochia (Kochia scoparia); [12]): 10
- Plant response rating, Kochia (kochia (Kochia scoparia); [13]): 45
- Plant response rating, Pigweed [4, 11]: 65
- Plant response rating, Pigweed [4, 12]: 90
- Plant response rating, Pigweed [4, 13]: 98
- Plant response rating, Wheat [5, 11]: 0
- Plant response rating, Wheat [5, 12]: 20
- Plant response rating, Wheat [5, 13]: 30
- Plant response rating, Oat, Wild (wild oat (Avena fatua); [11]): 30
- Plant response rating, Oat, Wild (wild oat (Avena fatua); [12]): 60
- Plant response rating, Oat, Wild (wild oat (Avena fatua); [13]): 70
- Plant response rating, Ragweed [6, 11]: 90
- Plant response rating, Ragweed [6, 12]: 100
- Plant response rating, Ragweed [6, 13]: 100
- Plant response rating, Soybean (soybean (Glycine max); [11]): 95
- Plant response rating, Soybean (soybean (Glycine max); [12]): 100
- Plant response rating, Soybean (soybean (Glycine max); [13]): 100
- Plant response rating, Velvetleaf [7, 11]: 100
- Plant response rating, Velvetleaf [7, 12]: 100
- Plant response rating, Velvetleaf [7, 13]: 100
- Plant response rating, Cocklebur [8, 11]: 100
- Plant response rating, Cocklebur [8, 12]: 100
- Plant response rating, Cocklebur [8, 13]: 100
- Plant response rating, Johnsongrass [9, 11]: 70
- Plant response rating, Johnsongrass [9, 12]: 100
- Plant response rating, Johnsongrass [9, 13]: 100
- Plant response rating, Goosegrass [10, 11]: 85
- Plant response rating, Goosegrass [10, 12]: 98
- Plant response rating, Goosegrass [10, 13]: 100

Compound: Cc1ccccc1-n1c(-c2cc(F)cc(F)c2)ncc(C(=O)C2=C(O)CCCC2=O)c1=O [Compound 159]
- Plant response rating, Canarygrass ([1]; 8 g ai/ha, 0 to 100 scale): 25
- Plant response rating, Canarygrass ([1]; 16 g ai/ha, 0 to 100 scale): 40
- Plant response rating, Canarygrass [1, 11]: 80
- Plant response rating, Chickweed ([2]; 8 g ai/ha, 0 to 100 scale): 80
- Plant response rating, Chickweed ([2]; 16 g ai/ha, 0 to 100 scale): 100
- Plant response rating, Chickweed [2, 11]: 100
- Plant response rating, Windgrass ([3]; 8 g ai/ha, 0 to 100 scale): 10
- Plant response rating, Windgrass ([3]; 16 g ai/ha, 0 to 100 scale): 40
- Plant response rating, Windgrass [3, 11]: 45
- Plant response rating, Kochia (kochia (Kochia scoparia); 8 g ai/ha, 0 to 100 scale): 20
- Plant response rating, Kochia (kochia (Kochia scoparia); 16 g ai/ha, 0 to 100 scale): 20
- Plant response rating, Kochia (kochia (Kochia scoparia); [11]): 40
- Plant response rating, Pigweed ([4]; 8 g ai/ha, 0 to 100 scale): 55
- Plant response rating, Pigweed ([4]; 16 g ai/ha, 0 to 100 scale): 75
- Plant response rating, Pigweed [4, 11]: 95
- Plant response rating, Wheat ([5]; 8 g ai/ha, 0 to 100 scale): 10
- Plant response rating, Wheat ([5]; 16 g ai/ha, 0 to 100 scale): 35
- Plant response rating, Wheat [5, 11]: 40
- Plant response rating, Oat, Wild (wild oat (Avena fatua); 8 g ai/ha, 0 to 100 scale): 0
- Plant response rating, Oat, Wild (wild oat (Avena fatua); 16 g ai/ha, 0 to 100 scale): 35
- Plant response rating, Oat, Wild (wild oat (Avena fatua); [11]): 60
- Plant response rating, Ragweed ([6]; 8 g ai/ha, 0 to 100 scale): 65
- Plant response rating, Ragweed ([6]; 16 g ai/ha, 0 to 100 scale): 80
- Plant response rating, Ragweed [6, 11]: 90
- Plant response rating, Soybean (soybean (Glycine max); 8 g ai/ha, 0 to 100 scale): 80
- Plant response rating, Soybean (soybean (Glycine max); 16 g ai/ha, 0 to 100 scale): 85
- Plant response rating, Soybean (soybean (Glycine max); [11]): 95
- Plant response rating, Velvetleaf ([7]; 8 g ai/ha, 0 to 100 scale): 98
- Plant response rating, Velvetleaf ([7]; 16 g ai/ha, 0 to 100 scale): 100
- Plant response rating, Velvetleaf [7, 11]: 100
- Plant response rating, Cocklebur ([8]; 8 g ai/ha, 0 to 100 scale): 75
- Plant response rating, Cocklebur ([8]; 16 g ai/ha, 0 to 100 scale): 80
- Plant response rating, Cocklebur [8, 11]: 95
- Plant response rating, Johnsongrass ([9]; 8 g ai/ha, 0 to 100 scale): 10
- Plant response rating, Johnsongrass ([9]; 16 g ai/ha, 0 to 100 scale): 45
- Plant response rating, Johnsongrass [9, 11]: 45
- Plant response rating, Goosegrass ([10]; 8 g ai/ha, 0 to 100 scale): 70
- Plant response rating, Goosegrass ([10]; 16 g ai/ha, 0 to 100 scale): 80
- Plant response rating, Goosegrass [10, 11]: 85

Compound: O=C1CCCC(O)=C1C(=O)c1cnc(-c2ccccc2)n(C2CCSCC2)c1=O [Compound 164]
- Plant response rating, Canarygrass [1, 11]: 40
- Plant response rating, Canarygrass [1, 12]: 90
- Plant response rating, Canarygrass [1, 13]: 98
- Plant response rating, Chickweed [2, 11]: 80
- Plant response rating, Chickweed [2, 12]: 98
- Plant response rating, Chickweed [2, 13]: 100
- Plant response rating, Windgrass [3, 11]: 5
- Plant response rating, Windgrass [3, 12]: 75
- Plant response rating, Windgrass [3, 13]: 85
- Plant response rating, Kochia (kochia (Kochia scoparia); [11]): 98
- Plant response rating, Kochia (kochia (Kochia scoparia); [12]): 100
- Plant response rating, Kochia (kochia (Kochia scoparia); [13]): 100
- Plant response rating, Pigweed [4, 11]: 98
- Plant response rating, Pigweed [4, 12]: 100
- Plant response rating, Pigweed [4, 13]: 100
- Plant response rating, Wheat [5, 11]: 0
- Plant response rating, Wheat [5, 12]: 35
- Plant response rating, Wheat [5, 13]: 50
- Plant response rating, Oat, Wild (wild oat (Avena fatua); [11]): 25
- Plant response rating, Oat, Wild (wild oat (Avena fatua); [12]): 85
- Plant response rating, Oat, Wild (wild oat (Avena fatua); [13]): 90
- Plant response rating, Ragweed [6, 11]: 85
- Plant response rating, Ragweed [6, 12]: 98
- Plant response rating, Ragweed [6, 13]: 100
- Plant response rating, Soybean (soybean (Glycine max); [11]): 80
- Plant response rating, Soybean (soybean (Glycine max); [12]): 100
- Plant response rating, Soybean (soybean (Glycine max); [13]): 100
- Plant response rating, Velvetleaf [7, 11]: 70
- Plant response rating, Velvetleaf [7, 12]: 80
- Plant response rating, Velvetleaf [7, 13]: 95
- Plant response rating, Cocklebur [8, 11]: 98
- Plant response rating, Cocklebur [8, 12]: 100
- Plant response rating, Cocklebur [8, 13]: 100
- Plant response rating, Johnsongrass [9, 11]: 45
- Plant response rating, Johnsongrass [9, 12]: 95
- Plant response rating, Johnsongrass [9, 13]: 98
- Plant response rating, Goosegrass [10, 11]: 85
- Plant response rating, Goosegrass [10, 12]: 98
- Plant response rating, Goosegrass [10, 13]: 98

Compound: O=C1CCCC(O)=C1C(=O)c1cnc(-c2cc(F)cc(F)c2)n(C2CCCCC2)c1=O [Compound 181]
- Plant response rating, Canarygrass [1, 11]: 50
- Plant response rating, Canarygrass [1, 12]: 85
- Plant response rating, Canarygrass [1, 13]: 90
- Plant response rating, Chickweed [2, 11]: 100
- Plant response rating, Chickweed [2, 12]: 100
- Plant response rating, Chickweed [2, 13]: 100
- Plant response rating, Windgrass [3, 11]: 40
- Plant response rating, Windgrass [3, 12]: 60
- Plant response rating, Windgrass [3, 13]: 65
- Plant response rating, Kochia (kochia (Kochia scoparia); [11]): 65
- Plant response rating, Kochia (kochia (Kochia scoparia); [12]): 100
- Plant response rating, Kochia (kochia (Kochia scoparia); [13]): 100
- Plant response rating, Pigweed [4, 11]: 100
- Plant response rating, Pigweed [4, 12]: 100
- Plant response rating, Pigweed [4, 13]: 100
- Plant response rating, Wheat [5, 11]: 40
- Plant response rating, Wheat [5, 12]: 50
- Plant response rating, Wheat [5, 13]: 70
- Plant response rating, Oat, Wild (wild oat (Avena fatua); [11]): 65
- Plant response rating, Oat, Wild (wild oat (Avena fatua); [12]): 90
- Plant response rating, Oat, Wild (wild oat (Avena fatua); [13]): 100
- Plant response rating, Ragweed [6, 11]: 98
- Plant response rating, Ragweed [6, 12]: 100
- Plant response rating, Ragweed [6, 13]: 100
- Plant response rating, Soybean (soybean (Glycine max); [11]): 100
- Plant response rating, Soybean (soybean (Glycine max); [12]): 100
- Plant response rating, Soybean (soybean (Glycine max); [13]): 100
- Plant response rating, Velvetleaf [7, 11]: 100
- Plant response rating, Velvetleaf [7, 12]: 100
- Plant response rating, Velvetleaf [7, 13]: 100
- Plant response rating, Cocklebur [8, 11]: 100
- Plant response rating, Cocklebur [8, 12]: 100
- Plant response rating, Cocklebur [8, 13]: 100
- Plant response rating, Johnsongrass [9, 11]: 100
- Plant response rating, Johnsongrass [9, 12]: 100
- Plant response rating, Johnsongrass [9, 13]: 100
- Plant response rating, Goosegrass [10, 11]: 95
- Plant response rating, Goosegrass [10, 12]: 100
- Plant response rating, Goosegrass [10, 13]: 100
